We go through 12 molecules from the RepoRT retention time repository (doi:10.1016/j.foodchem.2021.129757).

Molecules are shown by their SMILES.

One data set in a line: RP, Phenomenex Luna C18, 150 × 4.6 mm, 3 µm, 25 °C, 0.5 mL/min, estimated dead time 3.2 min; A: water + 0.1% formic acid, pH 3; B: acetonitrile + 0.1% formic acid, pH 3; gradient (min/%B) 0/0 30/30 35/40 50/80 52/80 60/0 65/0. To be noted: stereoisomer not certain.
Take `O=c1oc2c(O)c(O)cc3c(=O)oc4c(O)c(O)cc1c4c23` [Ellagic acid]: the LC retention time is 14.2 min.

As for `O=C(C=Cc1ccc(O)c(O)c1)OC1CC(O)(C(=O)O)CC(O)C1O` (stereo not drawn) [Chlorogenic acid], the LC retention time was 12.3 min.

Another data set in a line: RP, 150 × 2.1 mm, 2.6 µm, 40 °C, 0.35 mL/min, estimated dead time 0.94 min; A: water + 0.1% formic acid, pH 3; B: acetonitrile + 0.1% formic acid, pH 3; gradient (min/%B) 0/0 1/5 7/45 8.5/80 10.5/80 11/5 12/5. The following applies: stereoisomer not certain.
On to `O=C1c2c(O)cc(O)cc2OC(c2ccc(O)c(O)c2)C1O` (stereo not drawn) [Taxifolin], for which the LC retention time is 5.86 min.

Take `COc1ccc(C2CC(=O)c3c(O)cc(OC4OC(COC5OC(C)C(O)C(O)C5O)C(O)C(O)C4O)cc3O2)cc1O` (stereo not drawn) [Hesperidin]: the LC retention time is 6.18 min.

Another data set in a line: RP, Phenomenex Synergi Hydro-RP, 250 × 2 mm, 4 µm, 25 °C, 0.2 mL/min, estimated dead time 2.5 min; A: water + 0.1% formic acid, pH 3; B: acetonitrile + 0.1% formic acid, pH 3; gradient (min/%B) 0/0.5 7/0.5 12/12.5 25/16.3 47/35 48/65 50/65 50.1/0.5. The following applies: stereoisomer not certain.
`O=C(C=Cc1ccc(O)c(O)c1)OC1CC(O)(C(=O)O)CC(O)C1O` (stereo not drawn) [Chlorogenic acid]: the LC retention time was 20 min.

Take `O=C(O)c1ccc(O)cc1` [4-Hydroxybenzoic acid]: the LC retention time is 19.9 min.

Turning to `O=c1c(O)c(-c2ccc(O)c(O)c2)oc2cc(O)cc(O)c12` [Quercetin], the LC retention time was 46.8 min.

For `CC1OC(OCC2OC(Oc3c(-c4ccc(O)c(O)c4)oc4cc(O)cc(O)c4c3=O)C(O)C(O)C2O)C(O)C(O)C1O` (stereo not drawn) [Rutin], the LC retention time is 34.1 min.

As to `O=C1c2c(O)cc(O)cc2OC(c2ccc(O)c(O)c2)C1O` (stereo not drawn) [Taxifolin], the LC retention time is 33.9 min.

The nature of another data set: RP, Agilent ZORBAX Eclipse XDB-C18, 100 × 2.1 mm, 1.8 µm, 50 °C, 0.4 mL/min, estimated dead time 0.55 min; A: water + 0.1% formic acid, pH 3; B: methanol + 0.1% formic acid, pH 3; gradient (min/%B) 0/2 10/100 14.5/100 14.51/2 16.5/2. The following applies: stereoisomer not certain.
For the molecule `O=C(C=Cc1ccc(O)c(O)c1)OC1CC(O)(C(=O)O)CC(O)C1O` (stereo not drawn) [Chlorogenic acid], the LC retention time is 3.27 min.

`O=C(O)c1ccc(O)cc1` [4-Hydroxybenzoic acid]: the LC retention time is 2.91 min.

A short description of a further data set: RP, 50 × 0.5 mm, 2.7 µm, 35 °C, 0.01 mL/min, estimated dead time 0.62 min; A: water + 0.1% formic acid, pH 3; B: acetonitrile + 0.1% formic acid, pH 3; gradient (min/%B) 0/5 12/95 14/95 16/5. To be noted: stereoisomer not certain.
With `O=C(C=Cc1ccc(O)c(O)c1)OC1CC(O)(C(=O)O)CC(O)C1O` (stereo not drawn) [Chlorogenic acid], the LC retention time was 3.38 min.

The next data set in a line: RP, Merck LiChrospher RP-18, 250 × 4 mm, 5 µm, 35 °C, 0.3 mL/min, estimated dead time 6.7 min; A: water + 0.5% formic acid; B: acetonitrile + 0.5% formic acid; gradient (min/%B) 0/5 10/5 30/15 45/20 65/20 95/54 110/63 115/5 135/5. The following applies: stereoisomer not certain.
With `O=c1oc2c(O)c(O)cc3c(=O)oc4c(O)c(O)cc1c4c23` [Ellagic acid], the LC retention time was 60.3 min.

Regarding `O=c1cc(-c2ccc(O)cc2)oc2cc(O)cc(O)c12` [Apigenin], the LC retention time is 97 min.

`O=C(C=Cc1ccc(O)c(O)c1)OC1CC(O)(C(=O)O)CC(O)C1O` (stereo not drawn) [Chlorogenic acid]: the LC retention time was 41.1 min.

For the molecule `O=C(O)c1ccc(O)cc1` [4-Hydroxybenzoic acid], the LC retention time was 39.7 min.

In the case of `O=c1c(O)c(-c2ccc(O)c(O)c2)oc2cc(O)cc(O)c12` [Quercetin], the LC retention time is 91 min.

With `CC1OC(OCC2OC(Oc3c(-c4ccc(O)c(O)c4)oc4cc(O)cc(O)c4c3=O)C(O)C(O)C2O)C(O)C(O)C1O` (stereo not drawn) [Rutin], the LC retention time is 59.2 min.

As for `Oc1ccc(-c2[o+]c3cc(O)cc(O)c3cc2O)cc1` [Pelargonidin], the LC retention time was 42 min.

As for `COc1ccc(C2CC(=O)c3c(O)cc(OC4OC(COC5OC(C)C(O)C(O)C5O)C(O)C(O)C4O)cc3O2)cc1O` (stereo not drawn) [Hesperidin], the LC retention time is 75.1 min.

The nature of a further data set: RP, Merck Supelco SUPELCOSIL LC-C18, 250 × 4.6 mm, 5 µm, 40 °C, 1 mL/min, estimated dead time 2.6 min; A: water + 0.1% trifluoroacetic acid, pH 2; B: acetonitrile + 0.1% trifluoroacetic acid, pH 2; gradient (min/%B) 0/5 45/35 47/75 49/35 50/5. To be noted: stereoisomer not certain.
As for `O=c1oc2c(O)c(O)cc3c(=O)oc4c(O)c(O)cc1c4c23` [Ellagic acid], the LC retention time is 24.8 min.

Take `COc1cc(-c2[o+]c3cc(O)cc(O)c3cc2O)cc(OC)c1O` [Malvidin]: the LC retention time is 35.9 min.

`O=c1cc(-c2ccc(O)cc2)oc2cc(O)cc(O)c12` [Apigenin]: the LC retention time was 43.2 min.

Consider `O=c1cc2oc(-c3cc(O)c(O)c(O)c3)c(O)cc-2c(O)c1` [Delphinidin], for which the LC retention time is 25.1 min.

Consider `O=C(O)c1ccc(O)c(O)c1O` [2,3,4-Trihydroxybenzoic acid], for which the LC retention time was 8.9 min.

Regarding `O=C(C=Cc1ccc(O)c(O)c1)OC1CC(O)(C(=O)O)CC(O)C1O` (stereo not drawn) [Chlorogenic acid], the LC retention time is 13.8 min.

As to `O=C(O)c1ccc(O)cc1` [4-Hydroxybenzoic acid], the LC retention time was 11.3 min.

In the case of `O=c1c(O)c(-c2ccc(O)c(O)c2)oc2cc(O)cc(O)c12` [Quercetin], the LC retention time is 37.2 min.

On to `CC1OC(OCC2OC(Oc3c(-c4ccc(O)c(O)c4)oc4cc(O)cc(O)c4c3=O)C(O)C(O)C2O)C(O)C(O)C1O` (stereo not drawn) [Rutin], for which the LC retention time is 25.2 min.

As for `Oc1ccc(-c2[o+]c3cc(O)cc(O)c3cc2O)cc1` [Pelargonidin], the LC retention time is 33.5 min.

Regarding `O=C1c2c(O)cc(O)cc2OC(c2ccc(O)c(O)c2)C1O` (stereo not drawn) [Taxifolin], the LC retention time is 23 min.

For the molecule `COc1ccc(C2CC(=O)c3c(O)cc(OC4OC(COC5OC(C)C(O)C(O)C5O)C(O)C(O)C4O)cc3O2)cc1O` (stereo not drawn) [Hesperidin], the LC retention time is 30.1 min.

The nature of another data set: RP, Waters ACQUITY UPLC BEH C18, 100 × 2.1 mm, 1.7 µm, 65 °C, 0.4 mL/min, estimated dead time 0.55 min; A: water + 0.1% formic acid, pH 3; B: 80% acetonitrile + 20% acetone + 0.1% formic acid, pH 3; gradient (min/%B) 0/0 5/100 5.5/0 6/0. To be noted: stereoisomer not certain.
In the case of `O=c1oc2c(O)c(O)cc3c(=O)oc4c(O)c(O)cc1c4c23` [Ellagic acid], the LC retention time is 1.91 min.

For `O=C(C=Cc1ccc(O)c(O)c1)OC1CC(O)(C(=O)O)CC(O)C1O` (stereo not drawn) [Chlorogenic acid], the LC retention time was 1.64 min.

`O=C(O)c1ccc(O)cc1` [4-Hydroxybenzoic acid]: the LC retention time was 1.65 min.

Consider `O=c1c(O)c(-c2ccc(O)c(O)c2)oc2cc(O)cc(O)c12` [Quercetin], for which the LC retention time was 2.63 min.

A further data set can be described thus: RP, Waters Atlantis T3, 100 × 2.1 mm, 3 µm, 40 °C, 0.3 mL/min, estimated dead time 0.73 min; A: water + 0.1% trifluoroacetic acid, pH 2; B: acetonitrile + 0.1% trifluoroacetic acid, pH 2; gradient (min/%B) 0/10 1/10 6/40 7/50 8/50 14/70 16/80 20/10 25/10. The following applies: stereoisomer not certain.
As to `O=c1oc2c(O)c(O)cc3c(=O)oc4c(O)c(O)cc1c4c23` [Ellagic acid], the LC retention time was 7.94 min.

On to `O=c1cc(-c2ccc(O)cc2)oc2cc(O)cc(O)c12` [Apigenin], for which the LC retention time is 10.1 min.

`O=C(C=Cc1ccc(O)c(O)c1)OC1CC(O)(C(=O)O)CC(O)C1O` (stereo not drawn) [Chlorogenic acid]: the LC retention time is 3.17 min.

Turning to `O=C(O)c1ccc(O)cc1` [4-Hydroxybenzoic acid], the LC retention time was 3.58 min.

On to `O=c1c(O)c(-c2ccc(O)c(O)c2)oc2cc(O)cc(O)c12` [Quercetin], for which the LC retention time is 9.34 min.

With `CC1OC(OCC2OC(Oc3c(-c4ccc(O)c(O)c4)oc4cc(O)cc(O)c4c3=O)C(O)C(O)C2O)C(O)C(O)C1O` (stereo not drawn) [Rutin], the LC retention time is 7.12 min.

Turning to `COc1ccc(C2CC(=O)c3c(O)cc(OC4OC(COC5OC(C)C(O)C(O)C5O)C(O)C(O)C4O)cc3O2)cc1O` (stereo not drawn) [Hesperidin], the LC retention time is 10 min.
